The test system of assay [1] is NCI-H226 cells. Kind of assay: Viability assay in NCI-H226 (Yap-dependent) cells, CyQuant. It is filed as cell-based, human. Particulars: Homo sapiens, NCI-H226, 96 h. As for the experimental part: (§1) Viability Assay in NCI-H226 (Yap-Dependent) and SW620 Yap KO (Yap Independent) Cells
(§2) The ability of YAP-TEAD inhibitors to inhibit tumor cell growth was evaluated using two different cell lines: NCI-H226, which is a YAP dependent cell line, and SW620 cells, where YAP and TAZ were knocked out using CRISPR to generate a YAP independent cell line.
(§3) For the assay, cells were treated in duplicates with the test compounds in a 10-point dose, 1:3 dilution steps, with the top concentration starting at 30 μM (final concentration in assay). After a 96 hour incubation at 37° C., 95% rH, and 5% CO2, a cell-permeant DNA-binding dye that stains only healthy cells (CyQUANT®, Promega) was added to the cells, allowing the quantification of cell viability.
(§4) Cell Media: The NCI-H226 cells were cultured in the following media: RPMI 1640, +10% FBS, +1× GlutaMAX, +10 mM HEPES, +0.5% Pen/Strep. The SW620-KO cells were cultured in the following media: DMEM/F-12, +10% FBS, +1× GlutaMAX, +10 mM HEPES, +0.5% Pen/Strep.
(§5) Reagents: The reagents used are listed below:
(§6) Cell culture: The cells were examined using an inverted microscope to check for health, cell density, etc. To dissociate adherent cells, the monolayer of cells was washed once with pre-warmed PBS. After removing the PBS, 3 ml pre-warmed Accutase was added to a F75 flask, dispersed evenly and the flask was allowed to sit in incubator for ˜4-5 minutes.
(§7) When a single cell suspension was obtained, 7 ml of prewarmed growth media was added and resuspended with the cells. The cell suspension was transferred to a sterile 15 ml conical centrifuge tube, and spun for 5 min at 300×g, RT. The supernatant was discarded and the pellet was resuspended in 10 ml of pre-warmed growth media.
(§8) The total cell count was determined, and 20 μl of the desired cell number was added to each well of a 384 well plate using a Multidrop Combi. The plates were then incubated for 24 hours at 37° C., 95% rH, and 5% CO2.
(§9) Compound treatment: 24 hours after seeding, the cells were treated with compounds.
(§10) A 1:333 dilution of compounds, diluted in DMSO, was made to get a final concentration of 0.3% DMSO per well. To transfer the compounds to the assay plate, […] was shot from Labcyte low dead volume plates to the cell plates containing 20 μl media/well with the ECHO 555 liquid handling system.
(§11) After treatment, the cells were fed with 20 μl fresh pre-warmed assay media using a Multidrop combi.
(§12) The assay plates were then incubated for 96 h at 37° C., 95% rH, and 5% CO2.
(§13) 96 h after treatment 30 μl of CyQuant® reagent was added to the assay plates using a Multidrop combi in the dark. The plates were then incubated for 1 hour at 37° C., 95% rH and 5% CO2. Thereafter, the assay plates were removed from the incubator and allowed to equilibrate to RT for 30 min in the dark without lid. Finally, they were measured using an EnVision microplate reader with a FITC bottom read program.

Assay [2] has as its system SW620 Yap KO cells. As to the kind of experiment: Viability assay in SW620 Yap KO (Yap independent) cells, CyQuant. It counts as cell-based. As for the experimental part:
as §1, §2, §3, §4, §5, §6, §7, §8, §9, §10, §11, §12, §13

The subject of assay [3] is YAP-TEAD interaction. As to the kind of experiment: SK-HEP-1 reporter assay (8xTEAD responsive elements driving NanoLuc luciferase). It counts as cell-based. The gist of the method:
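Reporter read-out: NanoLuc luminescence from 8×TEAD elements stably integrated in SK-HEP-1 cells, after 24 h compound exposure at 37° C. Ten concentrations tested in duplicate, top 30 μM final, 0.3% DMSO; IC50 from curve.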
On the technique in general: In a reporter assay the amount or activity of a reporter protein is the signal.

The mark [4] stands for this setting: Homo sapiens, SK-HEP1, SK-HEP-1 reporter assay, class symbols.
Setting [5] is: Homo sapiens, SW-620, 96 h, n.d. = value not detectable below threshold given in parentheses, ND = not determinable within the entire range.
Where [6] appears, read: Homo sapiens, SW-620, 96 h, n.d. = value not detectable below threshold given in parentheses.
Where [7] appears, read: Homo sapiens, SK-HEP1, SK-HEP-1 reporter assay, n.d. = value not detectable below threshold given in parentheses, ND = not determinable within the entire range.
Setting [8] is: n.d. = value not detectable below threshold given in parentheses.

As usually defined, the IC50 is the concentration needed to halve the response being measured.

SMILES strings stand for the structures. Bounds are passed on as bounds.

For the compound `Cn1nc2c3cc(C(=O)N[C@](C)(CO)c4ccccn4)ccc3n(-c3ccc(C(F)(F)F)cc3)c2n1` (single isomer, unassigned) [Example C187], the IC50 was 1 to 100 nM in assay [1] (class symbols); 1000 to 10000 nM in assay [2] (Homo sapiens, SW-620, 96 h, class symbols); 10 to 100 nM in assay [3] (setting [4]).
For `Cn1cc2c3cc(C(=O)O)ccc3n(-c3ccc(C(F)(F)F)cn3)c2n1` [Example C126, 2-methyl-8-[5-(trifluoromethyl)pyridin-2-yl]-2H,8H-pyrazolo[3,4-b]indole-5-carboxylic acid], the IC50 is 100 to 1000 nM in assay [1] (class symbols), more than 3000 nM in assay [2] (setting [5]) and 10 to 100 nM in assay [3] (setting [4]).
Take `Cn1cc2c3cc(C(=O)NCc4ccncc4)ccc3n(C3CC4(C3)CC(F)(F)C4)c2n1` [Example C208, 8-{6,6-difluorospiro[3.3]heptan-2-yl}-2-methyl-N-[(pyridin-4-yl)methyl]-2H,8H-pyrazolo [3,4-b]indole-5-carboxamide]: the IC50 in assay [1] (class symbols) is 100 to 1000 nM; in assay [2] (setting [6]), more than 30000 nM; in assay [3] (setting [4]), 10 to 100 nM.
Regarding `Cn1cc2c3cc(C4CC(Cl)=NO4)ccc3n(-c3ccc(C(F)(F)F)cc3)c2n1` (stereo not drawn) [Example C17, 3-chloro-5-{2-methyl-8-[4-(trifluoromethyl)phenyl]-2H,8H-pyrazolo[3,4-b]indol-5-yl}-4,5-dihydro-1,2-oxazole], the IC50 in assay [1] (class symbols) was 1 to 100 nM; in assay [2] (setting [5]), more than 30000 nM; in assay [3] (setting [4]), 10 to 100 nM.
Take `Cn1cc2c3cc(NC(=O)c4ccncc4)ccc3n(-c3ccc(C(F)(F)F)cc3)c2n1` [Example C21, N-{2-methyl-8-[4-(trifluoromethyl)-phenyl]-2H,8H-pyrazolo[3,4-b]indol-5-yl}pyridine-4-carboxamide]: the results for the IC50 in assay [1] (class symbols), in assay [2] (setting [5]) and in assay [3] (setting [7]) were 100 to 1000 nM, more than 3000 nM and more than 1000 nM, respectively.
On to `Cn1cc2c3cc(C4CC(Oc5cncnc5)=NO4)ccc3n(-c3ccc(C(F)(F)F)cc3)c2n1` (stereo not drawn) [Example C50, 5-[(5-{2-methyl-8-[4-(trifluoromethyl)phenyl]-2H,8H-pyrazolo[3,4-b]indol-5-yl}-4,5-dihydro-1,2-oxazol-3-yl)oxy]pyrimidine], for which the IC50 in assay [1] (class symbols) is 100 to 1000 nM; in assay [2] (setting [5]), more than 30000 nM; in assay [3] (setting [4]), 100 to 10000 nM.
For `Cn1cc2c3cc(C(=O)N[C@@H](CO)c4ccccn4)ccc3n(-c3ccc(C(F)F)cc3)c2n1` [Example C248, 8-[4-(difluoromethyl)phenyl]-N-[(1R)-2-hydroxy-1-(pyridin-2-yl)ethyl]-2-methyl-2H,8H-pyrazolo[3,4-b]indole-5-carboxamide], the IC50 is 1 to 100 nM in assay [1] (class symbols), more than 30000 nM in assay [2] (setting [6]) and 10 to 100 nM in assay [3] (setting [4]).
Taken in the same sequence, the figures for `Cn1cnc2c1c1cc(C=O)ccc1n2-c1ccc(C(F)(F)F)cc1` [Example C174, 1-methyl-4-[4-(trifluoromethyl)phenyl]-1H,4H-imidazo[4,5-b]indole-7-carbaldehyde] were 1 to 100 nM, more than 30000 nM and 10 to 100 nM.
For the compound `Cn1cc2c3cc(C(=O)O)ccc3n(C34CC(C(F)(F)F)(C3)C4)c2n1` [Example C28, 2-methyl-8-[3-(trifluoromethyl)-bicyclo[1.1.1]pentan-1-yl]-2H,8H-pyrazolo[3,4-b]indole-5-carboxylic acid], the values for the IC50 in assay [1] (setting [8]), in assay [2] (setting [5]) and in assay [3] (setting [4]) were more than 10000 nM, more than 30000 nM and 10 to 100 nM, respectively.
On to `Cc1snc2c1c1cc(C(=O)NCCn3ccnc3)ccc1n2-c1ccc(C(F)(F)F)cc1` [Example C121], for which the concentration for half-maximal inhibition (IC50) in assay [1] (class symbols) is 1 to 100 nM; in assay [2] (setting [5]), more than 30000 nM; in assay [3] (setting [4]), 10 to 100 nM.
Taken in the same sequence, the figures for `Cn1cc2c3cc(C(=O)N[C@@H](CCO)c4cncs4)ccc3n(-c3ccc(C(F)(F)F)cc3)c2n1` (single isomer, unassigned) [Example C162] were 1 to 100 nM, more than 30000 nM and 10 to 100 nM.
As to `Cn1cc2c3nc(C(=O)N=S(C)(C)=O)ccc3n(-c3ccc(C(F)(F)F)cc3)c2n1` [Example C108, N-[dimethyl(oxo)-λ^6-sulfanylidene]-4-methyl-7-[4-(trifluoromethyl)phenyl]-4,5,7,12-tetraazatricyclo [6.4.0.0^∧{^2,6}]dodeca-1(8),2,5,9,11-pentaene-11-carboxamide], the results for the IC50 in assay [1] (class symbols), in assay [2] (setting [5]) and in assay [3] (setting [7]) were 100 to 1000 nM, more than 30000 nM and more than 30000 nM, respectively.
Turning to `Cn1cc2c3cc(C(=O)N=S(C)(C)=O)ccc3n(-c3ccc(C(F)(F)F)cn3)c2n1` [Example C149, N-[dimethyl(oxo)-λ^6-sulfanylidene]-2-methyl-8-[5-(trifluoromethyl)pyridin-2-yl]-2H,8H-pyrazolo[3,4-b]indole-5-carboxamide], the IC50 in assay [1] (class symbols) was 1 to 100 nM; in assay [2] (setting [5]), more than 30000 nM; in assay [3] (setting [7]) it was more than 320 nM.
In the case of `O=C(O)c1ccc2c(c1)c1cn(C3CCCCO3)nc1n2-c1ccc(C(F)(F)F)cc1` (stereo not drawn) [Example C10, 2-(oxan-2-yl)-8-[4-(trifluoromethyl)phenyl]-2H,8H-pyrazolo[3,4-b]indole-5-carboxylic acid], the IC50 is 100 to 1000 nM in assay [1] (class symbols), more than 30000 nM in assay [2] (setting [5]) and 10 to 100 nM in assay [3] (setting [4]).
Taken in the same sequence, the figures for `Cc1snc2c1c1cc(C(=O)N[C@@H](CO)c3ccccn3)ccc1n2-c1ccc(C(F)(F)F)cc1` [Example C67, N-[(1R)-2-hydroxy-1-(pyridin-2-yl)ethyl]-3-methyl-8-[4-(trifluoromethyl)phenyl]-8H-[1,2]thiazolo[3,4-b]indole-5-carboxamide] were 1 to 100 nM, more than 3200 nM and 10 to 100 nM.
Taken in the same sequence, the figures for `CNC(=O)c1ccc2c(c1)c1cn(C)nc1n2C12CC(C(F)(F)F)(C1)C2` [Example C125, N,2-dimethyl-8-[3-(trifluoromethyl)bicyclo[1.1.1]pentan-1-yl]-2H,8H-pyrazolo[3,4-b]indole-5-carboxamide] were 100 to 1000 nM, more than 3000 nM and 10 to 100 nM.
With `CC(NC(=O)c1ccc2c(c1)c1cn(C)nc1n2-c1ccc(C(F)(F)F)cc1)c1ccn[nH]1` (single isomer, unassigned) [Example C75], the IC50 was 1 to 100 nM in assay [1] (class symbols); more than 30000 nM in assay [2] (96 h, n.d. = value not detectable below threshold given in parentheses, ND = not determinable within the entire range); 10 to 100 nM in assay [3] (SK-HEP-1 reporter assay, class symbols).
In the case of `C[C@H](CO)NC(=O)c1ccc2c(c1)c1cn(C)nc1n2-c1ccc(C(F)(F)F)c(F)c1` [Example C167, 8-[3-fluoro-4-(trifluoromethyl)phenyl]-N-[(2R)-1-hydroxypropan-2-yl]-2-methyl-2H,8H-pyrazolo[3,4-b]indole-5-carboxamide], the results for the IC50 in assay [1] (class symbols), in assay [2] (setting [6]) and in assay [3] (setting [4]) were 1 to 100 nM, more than 30000 nM and 10 to 100 nM, respectively.
Regarding `Cc1snc2c1c1cc(C(=O)N=S(C)(=O)CCO)ccc1n2-c1ccc(C(F)(F)F)cc1` (single isomer, unassigned) [Example C101], the IC50 is 1 to 100 nM in assay [1] (class symbols), more than 3200 nM in assay [2] (setting [5]) and 10 to 100 nM in assay [3] (setting [4]).
Turning to `[2H]C1([2H])C(n2c3ccc(C(=O)O)cc3c3cn(C)nc32)C([2H])([2H])C([2H])([2H])C([2H])([2H])C1([2H])[2H]` [Example C193, 8-[(2,2,3,3,4,4,5,5,6,6-^2H10)cyclohexyl]-2-methyl-2H,8H-pyrazolo[3,4-b]indole-5-carboxylic acid], the IC50 in assay [1] (setting [8]) is more than 30000 nM; in assay [2] (setting [6]), more than 30000 nM; in assay [3] (setting [4]), 100 to 10000 nM.
`Cn1nc2c3cc(C(=O)N=S(C)(=O)CCO)ccc3n(-c3ccc(C(F)(F)F)cc3)c2n1` (single isomer, unassigned) [Example C192]: the IC50 in assay [1] (class symbols) was 1 to 100 nM; in assay [2] (setting [6]), more than 30000 nM; in assay [3] (setting [4]), 10 to 100 nM.

Source of the values: patent US20240270748A1 (Merck Patent GmbH, priority 2021, published 2024).
